How the values were obtained:
Type in all cases: in vivo, human
[1] = Example 2 long-term extension study: safety assessments (TEAEs, SAEs); details: intermittent repeated administration schedule
Excerpt: (§1) Long-Term Extension of a Multicenter, Phase III Study to Investigate the Efficacy and Safety of 3-Months of Treatment with UPA Followed by 10 Days of Treatment with NETA or Placebo in Subjects with Myomas and Heavy Uterine Bleeding
(§2) The study consisted of three periods of 3 months open-label UPA treatment, each followed by 10 days of double-blind treatment with NETA or placebo and then a drug-free period. Subjects were randomly assigned to a NETA or matching placebo arm with a 1:1 ratio.
(§3) In the study of Example 1 and for each present study courses, UPA 10 mg was orally administered once daily for a period of 90 days, followed by 10 mg NETA or matching placebo once daily for a period of 10 days. The first treatment course in the present study consisted of 90 days UPA 10 mg treatment followed by 10 days of double-blind treatment (same as in Example 1 study) started between the first and fourth day of menstruation (inclusive) following visit after the end of treatment, or one month later if uterine sparing surgery had been performed and myomas were still present. The second and third treatment courses of the present study started on the first day of menstruation following visits after ends of each treatment courses, respectively.
(§4) Parameters assessed are the same as it was described in Example 1.

endometrium [2] = experiment: Example 2 long-term extension study: endometrium thickness and endometrium biopsy
Excerpt: as §1, §2, §3, §4

endometrium [3] = experiment: Example 1 Phase III study: endometrial histology (biopsy); details: for percentage of non-physiological endometrial features: after treatment, 10.9% at screening
Protocol: (§5) Multicenter, Phase III Study to Investigate the Efficacy and Safety of 3-Months of Treatment with UPA Followed by 10 Days of Treatment with NETA or Placebo
(§6) All patients received a 3-month treatment course of UPA 10 mg once-daily followed by randomized oral NETA 10 mg once-daily or matching placebo for 10 days. UPA treatment was started during the first 4 days of menstruation. NETA or placebo was taken daily for the first 10 days following the cessation of UPA. The schedule incorporated the potential for women to enter an extension study involving repeated intermittent courses of UPA 10 mg.
(§7) In the clinical trial the effect of treatment of uterine fibroids have been assessed by means of parameters such as uterine bleeding using the pictorial blood-loss assessment chart (PBAC), condition of the uterus using transvaginal ultrasound (TVUS) and endometrial biopsy, endometrial histology using endometrial biopsy and pain using the Short-Form McGill Pain Questionnaire (SF-MPQ and quality of life using the Uterine Fibroid Symptom and Health-Related Quality of Life (UFS-QoL) questionnaire.
(§8) The safety endpoints included the number and proportion of patients experiencing treatment-emergent adverse events (TEAEs), including clinically significant changes in vital signs, physical examination, gynecological or breast examination, electrocardiogram (ECG), ovarian ultrasound, changes from baseline in endometrial thickness and clinically significant changes in endometrium biopsy. Other safety endpoints were change from baseline in hematology, coagulation, biochemistry, lipids, adrenocorticotropic hormone (ACTH), thyroid stimulating hormone (TSH) and prolactin, as well as serum levels of estradiol (E2).
(§9) Exploratory endpoints included assessment of the strength of the first menstruation after UPA treatment (using PBAC), time to return of menstruation following treatment end, and frequency of post-treatment PAEC observed in the endometrial biopsy after return of menstruation.

endometrium [4] = experiment: Example 1 Phase III study: endometrial thickness
Protocol: as §5, §6, §8

[5] = Example 1 Phase III study: adverse events (TEAEs, SAEs)
Protocol: as §5, §6, §8

[6] = system: myomas and heavy uterine bleeding; experiment: Example 2 long-term extension study: uterine bleeding, amenorrhea and return of menstruation (PBAC); details: for subjects with more than 9 days of any level of bleeding (heavy bleeding, bleeding or spotting) / percentage of subjects in amenorrhea: ITT Population; for mean time to amenorrhea / median time to amenorrhea: from first dose of UPA in the course
Excerpt: as §1, §2
In study described in Example 1, 251 subjects were screened at 21 sites and 209 subjects started treatment with UPA of which 202 attended the end of UPA treatment visit. Of those that completed study of Example 1 (190 subjects), 132 subjects from 19 sites opted to continue in to the extension study.
as §3, §4

uterine fibroids [7] = experiment: Example 1 Phase III study: uterine bleeding, amenorrhea and return of menstruation (PBAC)
Protocol: as §5, §6, §7
(§10) The efficacy end points were: percentage of amenorrheic patients at the end of UPA treatment; change from baseline in the volume of the three largest myomas to end of UPA treatment and 2 weeks after menstruation following end of NETA/placebo treatment; and change from baseline in pain and QoL to end of UPA treatment.
as §9

uterine fibroids [8] = experiment: Example 1 Phase III study: volume of the three largest fibroids (TVUS)
Protocol: as §5, §6, §7, §10

myomas = experiment: Example 2 long-term extension study: volume of the 3 largest myomas and uterine volume
Excerpt: as §1, §2, §3, §4

[9] = system: myomas and heavy uterine bleeding; experiment: Example 2 long-term extension study: pain (SF-MPQ) and quality of life (UFS-QoL, EQ-5D)
Excerpt: as §1, §2, §3, §4

[10] = system: myomas and heavy uterine bleeding; experiment: Example 2 long-term extension study: surgery undertaken compared to planned; details: by the end of study; ITT population of 132, surgery initially planned for 66 (50%)
Excerpt: as §1, §2, §3

uterine fibroids [11] = experiment: Example 1 Phase III study: pain (SF-MPQ, VAS) and quality of life (UFS-QoL); details: for pain assessed by the VAS, median change in score: median baseline 38
Protocol: as §5, §6, §7, §10

[12] = Example 1 Phase III study: serum hormones and biochemistry (E2, ACTH, TSH, prolactin, transaminases)
Protocol: as §5, §6, §8

[13] = follow-up visit, approximately 2 weeks after the third menstruation following 4th treatment course
[14] = from day 10 until end of treatment
[15] = from first day of menstruation on, or just prior to, first dose of UPA

C#C[C@]1(OC(C)=O)CC[C@H]2[C@@H]3CCC4=CC(=O)CC[C@@H]4[C@H]3CC[C@@]21C [NETA, norethindrone (norethisterone) acetate]
safety and tolerability assessment [1]: did not raise any safety concerns
endometrium thickness, comparison of the 2 treatment groups (endometrium [2]; after each treatment course): placebo group were higher compared to those for the NETA group
extensive cyst formation (one of the features of PAEC) (endometrium [3]; after NETA treatment): 2.4%
percentage of non-physiological endometrial features (endometrium [3]): 22.6%
endometrial polyp (endometrium [3]; biopsy 12 weeks after UPA treatment): one benign endometrial polyp
cases of PAEC (endometrium [3]; biopsy 12 weeks after UPA treatment, subgroup): no case of PAEC
percentage of women with endometrial thickness >16 mm (endometrium [4]; after NETA double-blind treatment, 0% at screening): 3.5%
women reporting events ([5]; double-blind treatment phase, 10 days after UPA): 11.2%
women with TEAEs ([5]; post-treatment phase): 26.5%
heaviness of bleeding as measured by the PBAC score (days 1-8) ([6]; first menstruation after each treatment course): decrease after each subsequent treatment course
median times to return of menstruation following discontinuation of UPA ([6]; treatment courses 1-4, NETA group compared to placebo group, p<0.001): significantly shorter
median return to menstruation following end of UPA treatment (uterine fibroids [7]; NETA 10 mg once-daily for 10 days after UPA, p≤0.001 vs placebo): 14.0 days
median change in PBAC score (uterine fibroids [7]; NETA treatment group, first menstruation following treatment completion compared to baseline, p=0.012 vs placebo): −122

CC(=O)O[C@]1(C(C)=O)CC[C@H]2[C@@H]3CCC4=CC(=O)CCC4=C3[C@@H](c3ccc(N(C)C)cc3)C[C@@]21C [UPA, 17α-acetoxy-11β[4-N,N-dimethylamino-phenyl)-19-norpregna-4,9-diene-3,20-dione]
median change in the combined volume of the largest three fibroids (uterine fibroids [8]; after UPA treatment and return of menstruation): −45.8%
median change in the combined volume of the largest three fibroids (uterine fibroids [8]; between baseline and end of UPA treatment): −45.1%
women with a ≥25% reduction in the volume of the three largest fibroids (uterine fibroids [8]; in vivo): 74.7%
uterine volume measured by US (myomas; during the study, maintained after end of treatment): decreased during the study
total volume of the 3 largest myomas, mean percent change from screening (myomas; end of 4th treatment course): −53.53%
total volume of the 3 largest myomas, median percent change from screening (myomas; end of 4th treatment course): −72.08%
total volume of the 3 largest myomas, mean percent change from screening (myomas; [13]): −33.68%
total volume of the 3 largest myomas, median percent change from screening (myomas; [13]): −58.84%
patient-reported pain, 3 SF-MPQ Parts ([9]; all visits): improvement from baseline at all visits
UFS-QoL average symptom severity score ([9]; compared to baseline): improvement (decrease) from baseline
UFS-QoL HRQL total score ([9]; on average, compared to baseline): improvement (increase)
ED-5D questionnaire, pain/discomfort and anxiety/depression dimensions ([9]; throughout the study): improvement was sustained throughout the study
safety and tolerability assessment [1]: well tolerated
endometrium biopsy diagnosis by consensus review (endometrium [2]; all biopsy samples, 3 independent pathologists): diagnosis of benign endometrium
incidence of non-physiological changes in endometrium biopsy samples (endometrium [2]; epithelial changes, unusual vascular changes, extensive cyst formation): highest in samples taken following first treatment course and second treatment course
endometrium thickness (endometrium [2]; following a single treatment course of 3 months UPA): an increase in endometrium thickness was observed
frequency of PAEC (endometrium [2]; long-term repeated administration): independent of length of treatment
percentage of non-physiological endometrial features (endometrium [3]): 25.6%
endometrial histology (endometrium [3]; biopsy 12 weeks after UPA treatment (n=38)): benign endometrial histology in all biopsies
endometrial histology (endometrium [3]; following double-blind treatment): benign in all cases
percentage of women with endometrial thickness >16 mm (endometrium [4]; end of UPA treatment, 1.5% at screening): 9.1%
patients with endometrial thickness >16 mm (endometrium [4]; three months later): none of the patients assessed had a thickness >16 mm
SAE during the UPA treatment phase ([5]; UPA treatment phase): No SAE occurred
serious adverse events (SAEs) during the study ([5]; all post-treatment, considered not related to study medication): Three serious adverse events (SAEs) were reported for two patients
TEAE breast discomfort/tenderness, women ([5]; during UPA treatment): 3.8%
TEAE fatigue, women ([5]; during UPA treatment): 4.3%
TEAE headache, women ([5]; during UPA treatment): 16.3%
TEAE hot flushes, women ([5]; during UPA treatment): 4.8%
TEAE lower abdominal pain, women ([5]; during UPA treatment): 3.3%
TEAE nasopharyngitis, women ([5]; during UPA treatment): 6.7%
TEAE nausea, women ([5]; during UPA treatment): 3.8%
TEAE pelvic pain, women ([5]; during UPA treatment): 3.8%
TEAE vertigo, women ([5]; during UPA treatment): 3.8%
TEAEs classified as severe ([5]; during UPA treatment): 3.8%
women with TEAEs ([5]; during UPA treatment): 57.4%
women with TEAEs considered to be UPA related ([5]; during UPA treatment): 29.7%
subjects for whom surgery was not performed [10]: 94.7%
pain, median change from baseline score (uterine fibroids [11]; Week 5): −5.0
pain assessed by the VAS, median change in score (uterine fibroids [11]; Week 5): −21
pain, median change from baseline score (uterine fibroids [11]; Week 9): −6.0
pain assessed by the VAS, median change in score (uterine fibroids [11]; Week 9): −26
QoL symptom severity, median change from baseline score (uterine fibroids [11]; after UPA treatment): −34.4
health-related QoL (HRQL) total score, median increase compared to baseline (uterine fibroids [11]; after UPA treatment): 28.5
pain, median change from baseline score (uterine fibroids [11]; end of UPA treatment): −6.0
pain assessed by the VAS, median change in score (uterine fibroids [11]; end of UPA treatment): −25
subjects with more than 9 days of any level of bleeding (heavy bleeding, bleeding or spotting) ([6]; days 9-90, treatment course 1): 15.9%
subjects with more than 9 days of any level of bleeding (heavy bleeding, bleeding or spotting) ([6]; days 9-90, treatment course 2): 6.3%
subjects with more than 9 days of any level of bleeding (heavy bleeding, bleeding or spotting) ([6]; days 9-90, treatment course 3): 3.4%
subjects with more than 9 days of any level of bleeding (heavy bleeding, bleeding or spotting) ([6]; days 9-90, treatment course 4): 3.9%
percentage of subjects in amenorrhea ([6]; end of treatment course 1): 79.5%
percentage of subjects in amenorrhea ([6]; end of treatment course 2): 88.5%
percentage of subjects in amenorrhea ([6]; end of treatment course 3): 88.2%
percentage of subjects in amenorrhea ([6]; end of treatment course 4): 89.7%
return to menstruation ([6]; following the end of each treatment course): al but 4 subjects with available data returned to menstruation
mean time to amenorrhea ([6]; treatment course 1): 9.4 days
median time to amenorrhea ([6]; treatment course 1): 4.0 days
mean time to amenorrhea ([6]; treatment course 2): 3.3 days
median time to amenorrhea ([6]; treatment course 2): 2.0 days
mean time to amenorrhea ([6]; treatment course 3): 5.3 days
median time to amenorrhea ([6]; treatment course 3): 3.0 days
mean time to amenorrhea ([6]; treatment course 4): 4.2 days
median time to amenorrhea ([6]; treatment course 4): 3.0 days
percentage of amenorrheic patients (uterine fibroids [7]; end of 3-month UPA 10 mg once-daily treatment): 78.5%
overall total median change in PBAC score (uterine fibroids [7]; first menstruation following treatment completion compared to baseline, median baseline score 216): −91.5
patients on any particular day reporting any bleeding (uterine fibroids [7]; [14]): < 5%
patients on any particular day reporting heavy bleeding (uterine fibroids [7]; [14]): < 2%
mean time to amenorrhea (uterine fibroids [7]; [15]): 10.6 days
median time to amenorrhea (uterine fibroids [7]; [15]): 5.0 days
mean E2 level ([12]; Visit 5, during UPA treatment, screening mean 149.9 pg/mL): 81.6 pg/mL
median E2 level ([12]; Visit 5, during UPA treatment, screening median 120.0 pg/mL): 55.0 pg/mL
changes in ACTH, TSH, or prolactin ([12]; during UPA treatment): No significant changes
hepatic transaminases ([12]; small number of patients, all resolved during continued treatment and/or by follow-up visit): marginal increase

From patent publication US10172869B2, “Progesterone receptor modulators for use in the therapy of uterine fibroids” (PregLem SA, priority 2013, dated 2019)
